Assay results published in patent US10626115B2, “Fused pyrimidinone and triazinone derivatives containing bridged nitrogen, their process of preparation and their therapeutic uses as antifungal and/or antiparasitic agents” (UNIVERSITE DE NANTES, priority 2015, dated 2020).
In brackets after ≈: the same amount, converted by molar mass. Read-outs that look alike come from different tables or passages of the source.

Experiments:
[1] = test system: A. fumigatus susceptible strain ASFU7; assay: Antifungal susceptibility, spectrofluorimetric microdilution, ASFU7; assay type: cell-based, Aspergillus fumigatus; conditions: for MIC: Aspergillus fumigatus, read-out: MIC values ASFU7
Procedure: (§1) Eleven strains of A. fumigatus with various itraconazole susceptibility were used: • Five susceptible strains: ASFU7, ASFU35A, ASFU38A, ASFU76 and ASFU78. • Six itraconazole-resistant strains: ASFU77 (erg11 mutation), ASFU13, ASFU17, ASFU19, ASFU20, ASFU23.
(§2) Antifungal susceptibility was evaluated with a spectrofluorimetric microdilution method. MIC was the concentration that was able to inhibit 80% of fluorescence measured in the control wells.

[2] = test system: A. fumigatus susceptible strain ASFU38A; assay: Antifungal susceptibility, spectrofluorimetric microdilution, ASFU38A; assay type: cell-based, Aspergillus fumigatus; conditions: for MIC: Aspergillus fumigatus, read-out: MIC values ASFU38A
Procedure: as §1, §2

[3] = test system: A. fumigatus itraconazole-resistant strain ASFU17; assay: Antifungal susceptibility, spectrofluorimetric microdilution, ASFU17; assay type: cell-based, Aspergillus fumigatus
Procedure: as §1, §2

[4] = test system: A. fumigatus itraconazole-resistant strain ASFU19; assay: Antifungal susceptibility, spectrofluorimetric microdilution, ASFU19; assay type: cell-based, Aspergillus fumigatus
Procedure: as §1, §2

[5] = test system: A. fumigatus susceptible strain ASFU35A; assay: Antifungal susceptibility, spectrofluorimetric microdilution, ASFU35A; assay type: cell-based, Aspergillus fumigatus; conditions: for MIC: Aspergillus fumigatus, read-out: MIC values ASFU35A
Procedure: as §1, §2

[6] = test system: A. fumigatus susceptible strain ASFU76; assay: Antifungal susceptibility, spectrofluorimetric microdilution, ASFU76; assay type: cell-based, Aspergillus fumigatus; conditions: for MIC: Aspergillus fumigatus, read-out: MIC values ASFU76
Procedure: as §1, §2

[7] = test system: A. fumigatus itraconazole-resistant strain ASFU20; assay: Antifungal susceptibility, spectrofluorimetric microdilution, ASFU20; assay type: cell-based, Aspergillus fumigatus
Procedure: as §1, §2

[8] = test system: Aspergillus fumigatus (ASFU7) spores; assay: Murine invasive aspergillosis; assay type: in vivo; conditions: neutropenic Swiss mice, ASFU7 spores i.v., 10 mg/kg per os once a day for 5 days; for survival: 14 days, p<0.01
Procedure: (§3) Transiently neutropenic female Swiss mice were used for experiments on systemic candidiasis and invasive aspergillosis.
Mice were inoculated intravenously with Aspergillus fumigatus (ASFU7) spores.
Treatment was administrated once a day (10 mg/kg per os) for 5 days. […] Fungal burden of the kidney was evaluated in dead animals during the experimentation or in animals sacrificed at the end of the experimentation.

[9] = test system: promastigote stage of a Leishmania mexicana strain; assay: Anti-Trypanosomatidae activity, promastigote stage, spectrofluorimetric microdilution; assay type: cell-based; conditions: for IC50: promastigote stage, 50% of control growth, read-out: L. mexicana (IC50 μM)
Procedure: Compounds were evaluated on the promastigote stage of a Leishmania mexicana strain using a spectrofluorimetric microdilution method. Inhibitory concentration 50 (IC50) was the concentration that inhibited 50% of the control growth.

[10] = test system: A. fumigatus itraconazole-resistant strain ASFU23; assay: Antifungal susceptibility, spectrofluorimetric microdilution, ASFU23; assay type: cell-based, Aspergillus fumigatus
Procedure: as §1, §2

[11] = test system: A. fumigatus susceptible strain ASFU78; assay: Antifungal susceptibility, spectrofluorimetric microdilution, ASFU78; assay type: cell-based, Aspergillus fumigatus; conditions: for MIC: Aspergillus fumigatus, read-out: MIC values ASFU78
Procedure: as §1, §2

[12] = test system: A. fumigatus itraconazole-resistant strain ASFU13; assay: Antifungal susceptibility, spectrofluorimetric microdilution, ASFU13; assay type: cell-based, Aspergillus fumigatus
Procedure: as §1, §2

[13] = test system: A. fumigatus itraconazole-resistant strain ASFU77 (erg11 mutation); assay: Antifungal susceptibility, spectrofluorimetric microdilution, ASFU77; assay type: cell-based, Aspergillus fumigatus; conditions: for MIC: Aspergillus fumigatus, read-out: MIC values ASFU77
Procedure: as §1, §2

[14] = test system: fluconazole-susceptible C. albicans strain: CAAL93; assay: Antifungal susceptibility, spectrofluorimetric microdilution, CAAL93; assay type: cell-based; conditions: Candida albicans, read-out: MIC values CAAL93
Procedure: (§4) Eight strains of Candida spp. with various azoles-susceptibilities were used: • One fluconazole-susceptible C. albicans strain: CAAL93 • Two fluconazole-resistant C. albicans strains: CAAL111 (efflux pump) and CAAL117 (erg11 mutations+voriconazole-resistant) • five fluconazole-resistant Candida non albicans strains: C. krusei (CAKR7, CAKR8), C. glabrata (CAGL2), C. parapsilosis s.l. (CAPA1, CAPA2).
(§5) Antifungal susceptibility was evaluated with a spectrofluorimetric microdilution method.

[15] = test system: fluconazole-resistant C. krusei (CAKR8); assay: microbe, parasite or virus in culture; assay type: cell-based; conditions: Pichia kudriavzevii, read-out: MIC values CAKR8
Procedure: as §4, §5

[16] = test system: fluconazole-resistant C. glabrata (CAGL2); assay: microbe, parasite or virus in culture; assay type: cell-based; conditions: Nakaseomyces glabratus, read-out: MIC values CAGL2
Procedure: as §4, §5

[17] = test system: fluconazole-resistant C. parapsilosis s.l. (CAPA2); assay: microbe, parasite or virus in culture; assay type: cell-based; conditions: Lodderomyces parapsilosis, read-out: MIC values CAPA2
Procedure: as §4, §5

[18] = test system: fluconazole-resistant C. albicans strain CAAL111 (efflux pump); assay: microbe, parasite or virus in culture; assay type: cell-based; conditions: Candida albicans, read-out: MIC values CAAL111
Procedure: as §4, §5

[19] = test system: fluconazole-resistant C. krusei (CAKR7); assay: microbe, parasite or virus in culture; assay type: cell-based; conditions: Pichia kudriavzevii, read-out: MIC values CAKR7
Procedure: as §4, §5

[20] = test system: fluconazole-resistant C. parapsilosis s.l. (CAPA1); assay: microbe, parasite or virus in culture; assay type: cell-based; conditions: Lodderomyces parapsilosis, read-out: MIC values CAPA1
Procedure: as §4, §5

[21] = test system: fluconazole-resistant C. albicans strain CAAL117 (erg11 mutations+voriconazole-resistant); assay: microbe, parasite or virus in culture; assay type: cell-based; conditions: Candida albicans, read-out: MIC values CAAL117
Procedure: as §4, §5

[22] = test system: Candida albicans strain (CAAL93); assay: Murine systemic candidiasis; assay type: in vivo; conditions: neutropenic Swiss mice, CAAL93 i.v., 10 mg/kg per os once a day for 5 days; for survival compared with the non-treated group: 28 days (compound 51, 14 days); for survival compared with the non-treated group / activity on fungal burden of the kidney compared to FLC: p<0.05; for fungal burden of the kidney: p<0.05 (compound 51 p<0.001)
Procedure: as §3
Mice were inoculated intravenously with a Candida albicans strain (CAAL93). Treatment was administrated once a day (10 mg/kg per os) for 5 days. […] Fungal burden of the kidney was evaluated in dead animals during the experimentation or in animals sacrificed at the end of the experimentation.

[23] = Cytotoxicity on HeLa cells; assay type: cell-based, Human; conditions: human, 50% inhibition of control fluorescence
Procedure: Hela Human cell line was used in view to evaluate cytotoxicity. It was evaluated with a spectrofluorimetric microdilution method. IC50 was the concentration that was able to inhibit 50% of fluorescence measured in the control wells.

[24] = concentration inhibiting 80% of control fluorescence
[25] = concentration inhibiting 50% of control fluorescence

SMILES | survival [8] | fungal burden of the kidney ([8]; p<0.05) | MIC [14, 25] [µg/mL] | MIC [15] [µg/mL] | MIC [16] [µg/mL] | MIC [17] [µg/mL] | MIC [18] [µg/mL] | MIC [19] [µg/mL] | MIC [20] [µg/mL] | MIC [21] [µg/mL] | MIC [13] [µg/mL] | MIC [1] [µg/mL] | MIC [2] [µg/mL] | MIC [5] [µg/mL] | MIC [6] [µg/mL] | MIC [14] [µg/mL] | effectiveness against the promastigote stage of L. Mexicana, in words [9] | IC50 ([9]; Leishmania mexicana) [µM] | MIC [11] [µg/mL] | survival compared with the non-treated group [22] | also measured
CCC(C)n1ncn(-c2ccc(N3CCN(c4ccc(OCC5COC(Cn6cncn6)(c6ccc(Cl)cc6Cl)O5)cc4)CC3)cc2)c1=O (centres unmarked) [ITRA, Itraconazole, reference compound] | did survive significantly longer | significantly reduced |  |  |  |  |  |  |  |  |  |  |  |  |  |  |  |  |  |  | MIC values ASFU7 [1, 24]: 0.42 ± 0.04 µg/mL (≈ 0.595 µM); MIC values ASFU38A [2, 24]: 0.52 µg/mL (≈ 0.737 µM); MIC values ASFU17 [3, 24]: >7 µg/mL; MIC values ASFU19 [4, 24]: >7 µg/mL; MIC values ASFU35A [5, 24]: 0.24 µg/mL (≈ 0.34 µM); MIC values ASFU76 [6, 24]: 0.50 ± 0.24 µg/mL (≈ 0.709 µM); MIC values ASFU20 [7, 24]: >7 µg/mL; IC50 [9]: 2.5 ± 0.7 µM; MIC values ASFU23 [10, 24]: >7 µg/mL; MIC values ASFU78 [11, 24]: 0.31 µg/mL (≈ 0.439 µM); MIC values ASFU13 [12, 24]: >70 µg/mL; MIC values ASFU77 [13, 24]: >100 µg/mL
C[C@@H](c1ncncc1F)[C@](O)(Cn1cncn1)c1ccc(F)cc1F [VOR, voriconazole, reference compound] |  |  | 0.005 ± 0.001 (≈ 0.0143 µM) | 0.24 ± 0.07 (≈ 0.687 µM) | 0.126 ± 0.003 (≈ 0.361 µM) | 0.36 ± 0.001 (≈ 1.03 µM) | 0.458 ± 0.196 (≈ 1.31 µM) | 0.817 ± 0.007 (≈ 2.34 µM) | 0.95 ± 0.13 (≈ 2.72 µM) | 1.1 ± 0.1 (≈ 3.15 µM) | 0.61 ± 0.04 (≈ 1.75 µM) |  |  |  |  |  |  |  |  |  | MIC [1, 24]: 0.15 ± 0.001 µg/mL (≈ 0.429 µM); MIC [2, 24]: 0.75 ± 0.2 µg/mL (≈ 2.15 µM); MIC ([3]; Aspergillus fumigatus, read-out: MIC values ASFU17): 1.19 µg/mL (≈ 3.39 µM); MIC ([4]; Aspergillus fumigatus, read-out: MIC values ASFU19): 1.86 µg/mL (≈ 5.33 µM); MIC [5, 24]: 0.6 ± 0.08 µg/mL (≈ 1.72 µM); MIC [6, 24]: 0.64 ± 0.01 µg/mL (≈ 1.83 µM); MIC ([7]; Aspergillus fumigatus, read-out: MIC values ASFU20): 0.178 µg/mL (≈ 0.51 µM); MIC ([10]; Aspergillus fumigatus, read-out: MIC values ASFU23): 0.097 µg/mL (≈ 0.278 µM); MIC [11, 24]: 0.59 ± 0.01 µg/mL (≈ 1.69 µM); MIC ([12]; Aspergillus fumigatus, read-out: MIC values ASFU13): 0.136 µg/mL (≈ 0.389 µM)
C[C@@H](n1ccc2nc(-c3ccc(C#N)cc3)cn2c1=O)[C@](O)(Cn1cncn1)c1ccc(F)cc1F [Compound 34, 6-[(1R,2R)-2-(2,4-Difluorophenyl)-2-hydroxy-1-methyl-3-(1H-1,2,4-triazol-1-yl)propyl]-2-(4-cyanophenyl)imidazo[1,2-c]pyrimidin-5-one] | did survive significantly longer | significantly reduced |  | 0.06 ± 0.01 (≈ 0.123 µM) | 0.64 ± 0.27 (≈ 1.31 µM) | 0.002 ± 0.001 (≈ 0.0041 µM) | 0.003 ± 0.001 (≈ 0.00615 µM) | 0.45 ± 0.31 (≈ 0.923 µM) | 0.002 ± 0.001 (≈ 0.0041 µM) |  | 38.4 ± 13.1 (≈ 78.7 µM) | 2.43 ± 0.19 (≈ 4.98 µM) | 12.6 ± 4.05 (≈ 25.9 µM) | 6.27 ± 0.3 (≈ 12.9 µM) | 6.44 ± 0.17 (≈ 13.2 µM) | < 0.001 | effective | 2.8 ± 0.2 | 5.98 ± 0.62 (≈ 12.3 µM) | significant longer survival | activity compared with compounds 29 and 35 ([8]; p<0.05): significantly more active than compounds 29 and 35; survival efficiency compared with FLC [22]: significantly more efficient than FLC; activity on fungal burden of the kidney compared to FLC [22]: significantly higher when compared to FLC; fungal burden of the kidney [22]: significantly decreased; IC50 [23]: 25000 nM
C[C@@H](n1ccc2nc(-c3ccccc3)cn2c1=O)[C@](O)(Cn1cncn1)c1ccc(F)cc1F [Compound 29, 6-[(1R,2R)-2-(2,4-Difluorophenyl)-2-hydroxy-1-methyl-3-(1H-1,2,4-triazol-1-yl)propyl]-2-phenylimidazo[1,2-c]pyrimidin-5-one] |  |  |  | 0.07 ± 0.02 (≈ 0.151 µM) | 0.15 ± 0.01 (≈ 0.324 µM) | 0.007 ± 0.004 (≈ 0.0151 µM) | 0.005 ± 0.002 (≈ 0.0108 µM) | 1.28 ± 0.33 (≈ 2.77 µM) | 0.009 ± 0.003 (≈ 0.0195 µM) |  | 28.2 ± 21.9 (≈ 61 µM) | 2.49 ± 0.13 (≈ 5.38 µM) | 6.86 ± 1 (≈ 14.8 µM) | 6.36 ± 1.42 (≈ 13.8 µM) | 6.66 ± 0.53 (≈ 14.4 µM) | < 0.001 | effective | 2.8 ± 0.3 | 5.93 ± 0.72 (≈ 12.8 µM) | significant longer survival | activity on fungal burden of the kidney compared to FLC [22]: significantly higher when compared to FLC; fungal burden of the kidney [22]: significantly decreased; IC50 [23]: 25000 nM
OC(Cn1cncn1)(Cn1cncn1)c1ccc(F)cc1F [FLC, fluconazole, reference compound] |  |  | 0.036 ± 0.02 (≈ 0.118 µM) | > 10 | 10.1 ± 0.61 (≈ 33 µM) | > 30 | > 30 | > 3 | > 30 | > 3 |  |  |  |  |  |  |  |  |  |  | 
